From ChEMBL document CHEMBL1671626, “In vitro profiling of ceftaroline against a collection of recent bacterial clinical isolates from across the United States” (2008)

Legend:
Assay type in all cases: functional
Streptococcus viridans [1] = experiment: Antibacterial activity against penicillin-nonsusceptible Streptococcus viridans assessed as susceptible isolates by CLSI M7-A7 broth microdilution method
Enterococcus faecalis [2] = experiment: Antibacterial activity against vancomycin-resistant Enterococcus faecalis assessed as susceptible isolates by CLSI M7-A7 broth microdilution method
Enterococcus faecalis [3] = experiment: Antibacterial activity against vancomycin-susceptible Enterococcus faecalis assessed as resistant isolates by CLSI M7-A7 broth microdilution method
Enterococcus faecium [4] = experiment: Antibacterial activity against vancomycin-resistant Enterococcus faecium assessed as susceptible isolates by CLSI M7-A7 broth microdilution method
Streptococcus pyogenes [5] = experiment: Antibacterial activity against erythromycin-susceptible Streptococcus pyogenes assessed as resistant isolates by CLSI M7-A7 broth microdilution method
Streptococcus agalactiae [6] = experiment: Antibacterial activity against erythromycin-susceptible Streptococcus agalactiae assessed as resistant isolates by CLSI M7-A7 broth microdilution method
Streptococcus agalactiae [7] = experiment: Antibacterial activity against erythromycin-nonsusceptible Streptococcus agalactiae assessed as resistant isolates by CLSI M7-A7 broth microdilution method
Streptococcus pyogenes [8] = experiment: Antibacterial activity against erythromycin-nonsusceptible Streptococcus pyogenes assessed as resistant isolates by CLSI M7-A7 broth microdilution method
Streptococcus viridans [9] = experiment: Antibacterial activity against penicillin-nonsusceptible Streptococcus viridans assessed as resistant isolates by CLSI M7-A7 broth microdilution method
Enterococcus faecalis [10] = experiment: Antibacterial activity against vancomycin-susceptible Enterococcus faecalis assessed as susceptible isolates by CLSI M7-A7 broth microdilution method
Enterococcus faecalis [11] = experiment: Antibacterial activity against vancomycin-resistant Enterococcus faecalis assessed as resistant isolates by CLSI M7-A7 broth microdilution method
Enterococcus faecium [12] = experiment: Antibacterial activity against vancomycin-resistant Enterococcus faecium assessed as resistant isolates by CLSI M7-A7 broth microdilution method

Compound `CO/N=C(\C(=O)N[C@@H]1C(=O)N2C(C(=O)O)=C(CSc3nc(=O)c(O)nn3C)CS[C@H]12)c1csc(N)n1` [CEFTRIAXONE] has an Activity (Streptococcus viridans [1]) of 28.6%.

`C[C@H]1COc2c(N3CCN(C)CC3)c(F)cc3c(=O)c(C(=O)O)cn1c23.C[C@H]1COc2c(N3CCN(C)CC3)c(F)cc3c(=O)c(C(=O)O)cn1c23.O` [LEVOFLOXACIN] gave an Activity (Enterococcus faecalis [2]) of 4%, an Activity (Enterococcus faecalis [3]) of 40.8% and an Activity (Enterococcus faecium [4]) of 0%. For the same compound, the Activity (Streptococcus pyogenes [5]) was 0%, the Activity (Streptococcus agalactiae [6]) was 0% and the Activity (Streptococcus agalactiae [7]) was 2.4%. The Activity (Streptococcus pyogenes [8]) was 0%, the Activity (Streptococcus viridans [9]) was 7.1% and the Activity (Enterococcus faecalis [10]) was 59.2%. The Activity (Enterococcus faecalis [11]) was 96%, the Activity (Streptococcus viridans [1]) was 92.9% and the Activity (Enterococcus faecium [12]) was 100%.
